Measurements from ChEMBL document CHEMBL3272311, “Syntheses and pharmacological activity of substituted imidazolidinethiones and thiomidazolines” (J Med Chem, 1977).
Calls of active or inactive are those of the source. The calls are words filed in the database; no cut-off is given here.

Assays:
[1] = Toxicity in ip dosed Swiss-Webster mouse after 24 hrs; type: organism-based; conditions: in vivo
[2] = system: Mus musculus; experiment: CNS depressant activity in Swiss-Webster mouse assessed as spontaneous motor activity at 50 to 200 mg/kg, ip by rotarod assay relative to control; type: functional; conditions: dose mg/kg 50-200; route intraperitoneal
[3] = system: Mus musculus; experiment: CNS depressant activity in Swiss-Webster mouse assessed as forced motor activity at 50 to 200 mg/kg, ip by rotarod assay relative to control; type: functional; conditions: dose mg/kg 50-200; route intraperitoneal
[4] = system: Mus musculus; experiment: Anticonvulsant activity against maximal electroshock-induced seizure in Swiss-Webster mouse assessed as prolongation of time for onset of convulsion at 50 to 200 mg/kg, ip relative to control; type: functional; conditions: dose mg/kg 50-200; route intraperitoneal
[5] = system: Mus musculus; experiment: Anticonvulsant activity against pentylenetetrazole-induced seizure in Swiss-Webster mouse assessed as prolongation of time for onset of convulsion at 50 to 200 mg/kg, ip relative to control; type: functional
[6] = system: Rattus norvegicus; experiment: Toxicity in Wistar rat assessed as decrease in respiration at 5 to 15 mg/kg, ip; type: organism-based; parameters: dose 5-15 mg/kg, route intraperitoneal; scale not given: the % may be the effect or the level left; conditions: in vivo
[7] = system: Rattus norvegicus; experiment: Toxicity in Wistar rat assessed as decrease in body temperature at 5 to 15 mg/kg, ip; type: organism-based; parameters: dose 5-15 mg/kg, route intraperitoneal; conditions: in vivo
[8] = system: Rattus norvegicus; experiment: Toxicity in Wistar rat assessed as marked ptosis at 5 to 15 mg/kg, ip; type: organism-based; parameters: dose 5-15 mg/kg, route intraperitoneal; conditions: in vivo
[9] = system: Rattus norvegicus; experiment: Toxicity in Wistar rat assessed as decrease in heart rate at 5 to 15 mg/kg, ip; type: organism-based; parameters: dose 5-15 mg/kg, route intraperitoneal; conditions: in vivo
[10] = system: Mus musculus; experiment: CNS depressant activity in ip dosed Swiss-Webster mouse assessed as spontaneous motor activity by rotarod assay; type: functional
[11] = system: Mus musculus; experiment: Anticonvulsant activity in Swiss-Webster mouse assessed as protection against pentylenetetrazole-induced seizure at 10 to 20 mg/kg, ip; type: functional, organism-based
[12] = system: Mus musculus; experiment: Anticonvulsant activity in Swiss-Webster mouse assessed as protection against strychnine-induced seizure at 10 to 20 mg/kg, ip; type: functional, organism-based
[13] = system: Mus musculus; experiment: Safety index, ratio of LD50 for toxicity in Swiss-Webster mouse to ED50 for CNS depressant activity in ip dosed Swiss-Webster by rotarod assay; type: functional
[14] = system: Rattus norvegicus; experiment: Toxicity in Wistar rat assessed as decrease in respiration at 50 to 200 mg/kg, ip; type: organism-based; parameters: dose 50-200 mg/kg, route intraperitoneal; scale not given: the % may be the effect or the level left; conditions: in vivo
[15] = system: Rattus norvegicus; experiment: Toxicity in Wistar rat assessed as decrease in body temperature at 50 to 200 mg/kg, ip; type: organism-based; parameters: dose 50-200 mg/kg, route intraperitoneal; conditions: in vivo
[16] = system: Rattus norvegicus; experiment: Toxicity in Wistar rat assessed as marked ptosis at 50 to 200 mg/kg, ip; type: organism-based; parameters: dose 50-200 mg/kg, route intraperitoneal; conditions: in vivo
[17] = system: Rattus norvegicus; experiment: Toxicity in Wistar rat assessed as decrease in heart rate at 50 to 200 mg/kg, ip; type: organism-based; parameters: dose 50-200 mg/kg, route intraperitoneal; conditions: in vivo
[18] = system: Mus musculus; experiment: Anticonvulsant activity against strychnine-induced seizure in Swiss-Webster mouse assessed as prolongation of time for onset of convulsion at 50 to 200 mg/kg, ip relative to control; type: functional; conditions: dose mg/kg 50-200; route intraperitoneal

SMILES	LD50 at 24 h [1] [mg/kg]	Activity [4] [%]	ED50 [10] [mg/kg]	Ratio LD50/ED50 [13]	Activity [5]	also measured
COC(=O)N1CCN=C1SCC(=O)c1ccccc1	> 1000	75	–	–	–	inhibition (INH) [2]: 85%; inhibition (INH) [3]: 40%; Activity ([5]; dose mg/kg 50-200, route intraperitoneal): 134%
COC(=O)N1CCN(C)C1=S	25	–	18	–	–	Activity [6]: 20%; T [7]: 1 °C; Activity [8]: Non-toxic; Activity [9]: 8 bpm
O=C1NC(=O)C(c2ccccc2)(c2ccccc2)N1 [PHENYTOIN]	–	–	10.7	–	–	Activity [11]: inactive; Activity [12]: inactive
COC(=O)N1CCN=C1SC	> 1000	106	–	16.1	Active	–
CSC1=NCCN1C(C)=O	> 1000	90	150	–	Active	Activity [14]: 50%; T [15]: 3 °C; Activity [16]: Toxic; Activity [17]: 25 bpm; Activity [18]: 48%
CC(=O)N1CCN(C)C1=S	40	–	–	0.5	–	–
